How the values were obtained:
Hepatic Metastases = experiment: Blind study detection of hepatic metastases on MR images pre and post contrast by 5 radiologists, Example 7; format: in vivo, rat; conditions: for Accuracy Post: includes adjustment for false positives; for #Post (number of metastases detected on Post contrast scans): one rat per dose, 5 radiologists; for Sensitivity Post: percentage of lesions detected on Post contrast scans
Source text: The cell line employed, C5, is a clonal derivative of a rat liver epithelial cell line initially derived from the livers of newborn Fisher rats and subsequently transformed in vitro by transfection with a plasmid containing the T24ras gene driven by the mouse metallothionein promotor. See, Li et al., P.N.A.S., Vol. 35, pp. 344 (1988); Reynolds et al., Oncogene, Vol. 323, pp. 323-330 (1987).
The tumors used in this study were generated by injecting 3 x 10⁵ cells into the superficial lobe of rat livers. Three separate injections of 10⁵ cells were made within an approximate area of 0.5 cm² under direct visualization. The tumors were allowed to grow for 14 to 17 days before imaging followed by sacrifice.
MR imaging was performed on a whole body 1.5 T Siemens Magnetom (Erlangen, West Germany) using a 15 cm Helmholtz receive only coil. Spin echo technique was used with TR/TE of 400 msec/17 msec, 2 mm slices with 4 acquisitions. Images were obtained pre and post contrast in both axial and coronal planes with post contrast images obtained from 5 to 60 minutes post contrast.
Rats were lightly sedated with ether and then fully sedated with I.P. Ketamine/Rompun 0.10 ml/100 g body weight. Contrast injections were performed by tail vein over two minutes with volume approximately 0.5 ml. Doses were as follows: free Gd-DTPA 0.5 and 0.2 mM/kg, 400 nm Gd-DTPA liposomes 0.5, 0.2 and 0.1 mM/Kg and 70 nm Gd-DTPA liposomes 0.5 and 0.2 mM/Kg with one rat injected with each dose.
Pre and post contrast images were separated and, in a blind study, five radiologists experienced in interpreting MR and oncologic imaging were given the MR images to interpret. The MR scans were presented to the radiologists randomly without knowledge of path findings or contrast agent used. The radiologists were instructed to count the number of metastases, plot lesion locations and measure lesion size. The number and sizes of lesions detected were then correlated with the histologic sections and the true number of metastases detected was determined for pre and post contrast scans. The Mann-Whitney test was used to test for statistical significance of results for lesion detection pre and post contrast.
Immediately after imaging, the rats were sacrificed by ether overdose and the livers removed and fixed in 10% formalin. The gross liver specimens were photographed and sectioned in the coronal plant at 2 mm intervals. The number of lesions were counted and size of lesions were measured to correlate with findings on MR images. Microscopic sections were prepared using hematoxylin and eosin stain and studied with light microscopy.

[1] = In vitro relaxivity from phantom imaging at 1.5 Tesla, Example 4; format: physicochemical; conditions: phantoms in PBS, T1
Protocol: Phantoms were prepared by diluting the vesicle preparation with Dulbecco's phosphate buffered saline (PBS) (Gibco), so as to obtain several samples for each vesicle preparation with an effective concentration of Gd-DTPA in the range 0.2-2 mmoles. Approximately 10 ml of each dilution was placed in 20 ml plastic syringes (Becton Dickinson), which were sealed with parafilm to prevent leakage and placed in a custom-built acrylic phantom holder which positioned the syringes with their long-axes horizontal within the bore of the magnet.
Phantoms were imaged using a Siemens 1.5 Tesla Magnetom whole body scanner (Iselin, N.J.) using body coil. For T1 calculations, images were acquired using spin-echo sequences with a fixed TE of 17 msec and TR values of 100, 300, 450, 600, 900, 1200, 1800, 2500 and 3500 msec. Other parameters were 4 acquisitions, 256 x 256 matrix, 30 cm field of view and 10 mm slices.

Male buffalo rats = experiment: In vivo MR contrast enhancement (signal intensity pre and post contrast), Example 3; conditions: for Liver + Muscle (ratio of liver enhancement to muscle enhancement) / Liver enhancement / Muscle enhancement (paraspinal muscle): scans 30 min after I.V. injection
Protocol: All in vivo imaging was performed on a Siemens 1.5 Tesla magnet (Iselin, N.J.). Spin echo technique was utilized for both T1- and T2-weighted imaging. T1-weighted sequences utilized parameters TR/TE: 400 msec/16 msec, 4 acquisitions, 256 x 256 matrix 16 cm field view for 2 mm thick slices. For T1 calculations, images were acquired using a fixed TE of 28 msec with TR varying from 300, 500, 1500 and 3500 msec. For T2 calculations a fixed TR of 3500 msec was used with TE values of 28, 45, 70, 90 and 150 msec. T1 and T2 calculations were preformed using the software on the Magnetom System (Iselin, N.J.) by selecting a region of interest on the CRT monitor.
Male buffalo rats, weighing approximately 450 grams, were scanned using a 7.5 cm circular surface coil. The animals were scanned in the supine position, and signal intensities of liver, paraspinal muscle, kidney, renal pelvis, bladder and vascular structures were measured pre and post contrast. Rats were imaged pre and post contrast injection of either 0.4 µ Gd-DTPA liposomes (8 rats) or free Gd-DTPA (2 rats).
Injections of the 0.4 µ liposomes prepared in Example 1 were performed by tail vein injection using a 26 gauge butterfly needle. Gd-DTPA liposomes were injected over a period of approximately two minutes; liposomes were diluted with an equal volume of normal saline immediately prior to injection.

Male Wistar rats = experiment: In vivo MR contrast enhancement of microemulsified liposomes at 0.5 Tesla, Example 9; conditions: control, dose of 0.1 mmoles/kg; Figure 5
Protocol: All in vivo imaging was performed on a Toshiba MR-50A 0.5 Tesla whole body scanner. Scan parameters were TR = 400 msec TE = 15 msec, 5 mm slice, 1 mm interslice gap, 15 cm field of view with 4 acquisitions using a receive-only surface coil.
Male Wistar rats were scanned in the supine position, and signal intensities of liver, kidney and paraspinal muscle as well as urine, were measured pre and post contrast, with post contrast intervals comprising 15 minutes, 1 hour, 4 hours, 24 hours and 48 hours.
Injections of liposomes prepared as described above were made at concentrations of 0.1, 0.05 and 0.025 mM/kg, based on the weight of the rats, and were carried out by tail vein injection using a 26 gauge butterfly needle. The liposomes were injected over a period of approximately two minutes, and were first diluted with an equal volume of normal saline immediately prior to injection.

gadolinium diethylenetriamine pentaacetic acid [Free Gd-DTPA]
Accuracy Post (Hepatic Metastases; Dose 0.2 mm/kg): 0±0%
#Post (number of metastases detected on Post contrast scans) (Hepatic Metastases; Dose 0.2 mm/kg): 0±0 isointense
Sensitivity Post (Hepatic Metastases; Dose 0.2 mm/kg): 0±0%
Accuracy Post (Hepatic Metastases; Dose 0.5 mm/kg): 40.0±23.5%
#Post (number of metastases detected on Post contrast scans) (Hepatic Metastases; Dose 0.5 mm/kg): 2.80±1.64
Sensitivity Post (Hepatic Metastases; Dose 0.5 mm/kg): 40.0±23.5%
lesion detection by the five radiologists (Hepatic Metastases; post versus pre contrast, Mann-Whitney test): statistically significant reduction in lesion detection
Relaxivity [1]: 2.79 sec^-1 x mM^-1
Liver + Muscle (ratio of liver enhancement to muscle enhancement) (Male buffalo rats; Dose 0.109 mM/Kg): -19.3%
Liver enhancement (Male buffalo rats; Dose 0.109 mM/Kg): 0.0%
Muscle enhancement (paraspinal muscle) (Male buffalo rats; Dose 0.109 mM/Kg): 22.4%
Liver + Muscle (ratio of liver enhancement to muscle enhancement) (Male buffalo rats; Dose 0.218 mM/Kg): 8.2%
Liver enhancement (Male buffalo rats; Dose 0.218 mM/Kg): 11.6%
Muscle enhancement (paraspinal muscle) (Male buffalo rats; Dose 0.218 mM/Kg): 3.1%
enhancement on scans after injection (Male buffalo rats; two control animals, 0.1 and 0.2 millimoles/kg): enhancement of renal cortex, renal pelvis and urinary bladder, but no appreciable enhancement of liver or vascular structures
enhancement on scans (tissue to muscle ratio) (Male Wistar rats): no significant enhancement of the liver, kidney and urine
